Assay results from the NIST ThermoML archive (doi:10.1016/j.jct.2019.02.028).

Experiment: xn = mol fraction of the nth substance listed
Conditions: Gas, Burnett expansion method

C=C(F)C(F)(F)F [2,3,3,3-tetrafluoro-1-propene] + FCF
Conditions | mass density [kg/m3]
298.75 K, 572.1 kPa, x2 = 0.119 | 28.04
298.79 K, 1055.5 kPa, x2 = 0.698 | 36.11
298.8 K, 475.09 kPa, x2 = 0.449 | 18
298.8 K, 476.95 kPa, x2 = 0.259 | 20.72
298.8 K, 518.4 kPa, x2 = 0.698 | 16.01
298.8 K, 684.19 kPa, x2 = 0.449 | 27.04
298.82 K, 748.46 kPa, x2 = 0.698 | 24.04
298.86 K, 487.12 kPa, x2 = 0.874 | 12.55
298.86 K, 1393.8 kPa, x2 = 0.874 | 42.51
298.87 K, 1004.6 kPa, x2 = 0.874 | 28.3
298.93 K, 704.35 kPa, x2 = 0.874 | 18.84
308.66 K, 1524.8 kPa, x2 = 0.698 | 54.21
308.68 K, 1108.2 kPa, x2 = 0.698 | 36.09
308.69 K, 597.54 kPa, x2 = 0.119 | 28.02
308.7 K, 493.92 kPa, x2 = 0.449 | 17.99
308.7 K, 496.45 kPa, x2 = 0.259 | 20.72
308.71 K, 538.99 kPa, x2 = 0.698 | 16
308.71 K, 714.14 kPa, x2 = 0.449 | 27.02
308.71 K, 842.28 kPa, x2 = 0.119 | 42.09
308.72 K, 712.34 kPa, x2 = 0.259 | 31.11
308.72 K, 997.47 kPa, x2 = 0.259 | 46.73
308.73 K, 780.62 kPa, x2 = 0.698 | 24.03
308.74 K, 1976.1 kPa, x2 = 0.874 | 63.81
308.76 K, 1011.1 kPa, x2 = 0.449 | 40.58
308.77 K, 1470.2 kPa, x2 = 0.874 | 42.48
308.78 K, 1051.3 kPa, x2 = 0.874 | 28.28
308.79 K, 506.01 kPa, x2 = 0.874 | 12.54
308.82 K, 733.43 kPa, x2 = 0.874 | 18.83
313.6 K, 1566.5 kPa, x2 = 0.698 | 54.19
313.64 K, 503.35 kPa, x2 = 0.449 | 17.98
313.64 K, 1134 kPa, x2 = 0.698 | 36.08
313.65 K, 610.01 kPa, x2 = 0.119 | 28.01
313.66 K, 506.36 kPa, x2 = 0.259 | 20.71
313.66 K, 728.88 kPa, x2 = 0.449 | 27.01
313.67 K, 796.71 kPa, x2 = 0.698 | 24.02
313.68 K, 549.32 kPa, x2 = 0.698 | 15.99
313.68 K, 727.83 kPa, x2 = 0.259 | 31.11
313.68 K, 862.42 kPa, x2 = 0.119 | 42.07
313.68 K, 1021.8 kPa, x2 = 0.259 | 46.73
313.7 K, 1507.4 kPa, x2 = 0.874 | 42.47
313.7 K, 2038.5 kPa, x2 = 0.874 | 63.79
313.72 K, 1034.8 kPa, x2 = 0.449 | 40.57
313.72 K, 1074 kPa, x2 = 0.874 | 28.28
313.74 K, 515.35 kPa, x2 = 0.874 | 12.53
313.79 K, 747.77 kPa, x2 = 0.874 | 18.83
318.62 K, 1609.8 kPa, x2 = 0.698 | 54.18
318.68 K, 1159.3 kPa, x2 = 0.698 | 36.07
318.7 K, 2100 kPa, x2 = 0.874 | 63.77
318.72 K, 512.99 kPa, x2 = 0.449 | 17.98
318.72 K, 882.63 kPa, x2 = 0.119 | 42.06
318.72 K, 1210.1 kPa, x2 = 0.119 | 63.25
318.73 K, 516.26 kPa, x2 = 0.259 | 20.71
318.73 K, 743.73 kPa, x2 = 0.449 | 27
318.73 K, 813.03 kPa, x2 = 0.698 | 24.02
318.73 K, 1463.2 kPa, x2 = 0.449 | 61.04
318.74 K, 559.65 kPa, x2 = 0.698 | 15.99
318.74 K, 743.48 kPa, x2 = 0.259 | 31.1
318.74 K, 1046.5 kPa, x2 = 0.259 | 46.72
318.74 K, 1058.5 kPa, x2 = 0.449 | 40.56
318.74 K, 1097.2 kPa, x2 = 0.874 | 28.27
318.74 K, 1544.9 kPa, x2 = 0.874 | 42.46
318.75 K, 622.85 kPa, x2 = 0.119 | 28
318.77 K, 762.25 kPa, x2 = 0.874 | 18.82
318.78 K, 525.03 kPa, x2 = 0.874 | 12.53
323.56 K, 1650.9 kPa, x2 = 0.698 | 54.16
323.62 K, 1184.6 kPa, x2 = 0.698 | 36.06
323.62 K, 2161.1 kPa, x2 = 0.874 | 63.75
323.67 K, 522.17 kPa, x2 = 0.449 | 17.97
323.67 K, 902.39 kPa, x2 = 0.119 | 42.05
323.67 K, 2803.5 kPa, x2 = 0.874 | 96.27
323.68 K, 525.72 kPa, x2 = 0.259 | 20.71
323.68 K, 569.78 kPa, x2 = 0.698 | 15.98
323.68 K, 758.4 kPa, x2 = 0.449 | 27
323.68 K, 828.96 kPa, x2 = 0.698 | 24.01
323.68 K, 1081.3 kPa, x2 = 0.449 | 40.55
323.69 K, 533.88 kPa, x2 = 0.874 | 12.53
323.69 K, 758.79 kPa, x2 = 0.259 | 31.1
323.69 K, 1070.4 kPa, x2 = 0.259 | 46.71
323.69 K, 1460 kPa, x2 = 0.259 | 70.1
323.69 K, 1502 kPa, x2 = 0.449 | 61.01
323.69 K, 2207.6 kPa, x2 = 0.698 | 81.35
323.7 K, 635.26 kPa, x2 = 0.119 | 27.99
323.7 K, 1243.5 kPa, x2 = 0.119 | 63.23
323.7 K, 1581.8 kPa, x2 = 0.874 | 42.45
323.71 K, 776.56 kPa, x2 = 0.874 | 18.81
323.73 K, 1120.2 kPa, x2 = 0.874 | 28.26
328.55 K, 1691.6 kPa, x2 = 0.698 | 54.15
328.58 K, 1209.7 kPa, x2 = 0.698 | 36.05
328.6 K, 543.23 kPa, x2 = 0.874 | 12.52
328.61 K, 531.32 kPa, x2 = 0.449 | 17.97
328.61 K, 772.98 kPa, x2 = 0.449 | 26.99
328.61 K, 1275.3 kPa, x2 = 0.119 | 63.21
328.62 K, 579.61 kPa, x2 = 0.698 | 15.98
328.62 K, 2220.5 kPa, x2 = 0.874 | 63.73
328.62 K, 2904.2 kPa, x2 = 0.874 | 96.19
328.63 K, 535.28 kPa, x2 = 0.259 | 20.7
328.63 K, 844.62 kPa, x2 = 0.698 | 24
328.63 K, 922.19 kPa, x2 = 0.119 | 42.04
328.63 K, 1094.6 kPa, x2 = 0.259 | 46.71
328.63 K, 1105.1 kPa, x2 = 0.449 | 40.54
328.63 K, 1499.1 kPa, x2 = 0.259 | 70.09
328.64 K, 647.48 kPa, x2 = 0.119 | 27.99
328.64 K, 773.73 kPa, x2 = 0.259 | 31.1
328.64 K, 1540.2 kPa, x2 = 0.449 | 60.98
328.64 K, 2275.8 kPa, x2 = 0.698 | 81.33
328.65 K, 1617.6 kPa, x2 = 0.874 | 42.43
328.66 K, 790.86 kPa, x2 = 0.874 | 18.81
328.67 K, 1142.6 kPa, x2 = 0.874 | 28.25
333.46 K, 1731.9 kPa, x2 = 0.698 | 54.13
333.56 K, 540.51 kPa, x2 = 0.449 | 17.96
333.57 K, 941.58 kPa, x2 = 0.119 | 42.02
333.57 K, 1235.3 kPa, x2 = 0.698 | 36.04
333.57 K, 2278.9 kPa, x2 = 0.874 | 63.71
333.57 K, 2342.7 kPa, x2 = 0.698 | 81.3
333.58 K, 544.62 kPa, x2 = 0.259 | 20.7
333.58 K, 1578 kPa, x2 = 0.449 | 60.96
333.58 K, 1734.6 kPa, x2 = 0.119 | 94.99
333.58 K, 2115 kPa, x2 = 0.449 | 91.6
333.58 K, 3002.9 kPa, x2 = 0.874 | 96.12
333.59 K, 659.59 kPa, x2 = 0.119 | 27.98
333.59 K, 787.46 kPa, x2 = 0.449 | 26.98
333.59 K, 788.83 kPa, x2 = 0.259 | 31.09
